Laboratory results taken from patent publication US12172988B2, “Anticancer and antifungal splice modulators” (priority 2021, dated 2024).
Like-named read-outs stand apart in the source and are kept apart here.

Experiments:
[1] = in vivo; cited from earlier work
[2] = test system: SF2; experiment: qPCR gene expression of alternative splicing factor SF2; assay type: cell-based, human; details: for SF2 RNA expression: HCT116, 24 h, 100, 250, 500 nM, compared to 1
Protocol: (§1) HCT116 tumor cells were treated with each analogue at 20 times the G150 value (Table 12) for 4 hours and then cellular RNA was isolated and purified for qPCR. Primers were designed to evaluate intron retention or exon skipping, direct responses to splice modulator treatment. Genes evaluated included those involved in splicing regulation (SF3A1, SF3A3, SF3B1, SF3B2), apoptosis (MCL-1L), protein folding (DNAJB1), and cell cycle regulation (AURKA, PLK-1) relative to the unspliced control GAPDH. For alternative splicing regulator (SF2), primers were designed to evaluate gene expression, which changes in response splice modulator treatment for SF2 relative to the unspliced control GAPDH. (−) denotes untreated cells.
as §1, with “analogues” for “each analogue”, “100 nM (light grey), 250 nM (grey), or 500 nM (black)” for “20 times the G150 value (Table 12)”, “24 h” for “4 hours”, “(MCL-1L), and” for “(MCL-1L),”, “(DNAJB1),” for “(DNAJB1), and cell cycle regulation (AURKA, PLK-1)”, “(—)” for “(−)”
(§2) Next, we turned our efforts to explore the ability of these analogues to modulate splicing. […] We treated cells for 4 h so that we could evaluate early changes in splicing activity, and then cellular RNA was isolated and purified for analyses by qPCR (FIG. 14). Most importantly, none of the concentrations tested led to significant changes in cell viability, ensuring that changes in gene expression were not due to cell death.
(§3) For these studies, we evaluated the expression of genes involved in splicing regulation (SF3A1, SF3A3, SF3B1, SF3B2), apoptosis (MCL-1L), protein folding (DNAJB1), and cell cycle regulation (AURKA, PLK-1) relative to the unspliced control GAPDH. Primers were designed to evaluate intron retention or exon skipping, direct responses to splice modulator treatment. The master splicing regulator alternative splicing factor (SF2) was also evaluated, with the primers for this gene designed to evaluate overall gene expression, which changes in response to splice modulator treatment.
From this 4 h study (FIG. 14), a small set of analogs (1, 1b, 1g, 1d, 1e, 1i and 1j) were selected to evaluate if effects on splicing when presented for a longer 24 h period. […] Using identical procedures as that used for 4 h, HCT116 cells were treated with three concentrations (100 nM, 250 nM and 500 nM) of each analog for 24 h. […]

[3] = test system: DNAJB1; experiment: qPCR splicing analysis, DNAJB1 intron retention; assay type: cell-based, human; details: for DNAJB1 intron retention: HCT116, 24 h, 100, 250, 500 nM, compared to 1
Protocol: as §1
as §1, with “analogues” for “each analogue”, “100 nM (light grey), 250 nM (grey), or 500 nM (black)” for “20 times the G150 value (Table 12)”, “24 h” for “4 hours”, “(MCL-1L), and” for “(MCL-1L),”, “(DNAJB1),” for “(DNAJB1), and cell cycle regulation (AURKA, PLK-1)”, “(—)” for “(−)”
as §2, §3
From this 4 h study (FIG. 14), a small set of analogs (1, 1b, 1g, 1d, 1e, 1i and 1j) were selected to evaluate if effects on splicing when presented for a longer 24 h period. […] Using identical procedures as that used for 4 h, HCT116 cells were treated with three concentrations (100 nM, 250 nM and 500 nM) of each analog for 24 h. Multiple concentrations were used as a means to check further validate the use of the GI50 concentration in our prior study (FIG. 14). As before, none of the concentrations tested led to significant changes in cell viability over the 24-hour time window, ensuring that changes in gene expression were not due to cell death.
Cells were treated with 1 or 1a-1j in media (McCoy's 5a (Life Technologies) supplemented with 10% FBS, 2 mM L-glutamine, and 100 U mL^−1 of penicillin and 100 μg mL^−1 of streptomycin 0.5% DMSO) for 4 h or 24 h. Untreated cells were considered were used as negative control. Total RNA was isolated using mirVana miRNA isolation kit (Life Technologies). […]

[4] = compared with C16-C17 isomers / pladienolides, cited from earlier work
[5] = test system: SF3A3; experiment: qPCR splicing analysis, SF3A3 intron retention; assay type: cell-based, human; details: HCT116, 24 h, 100, 250, 500 nM
Protocol: as §1
HCT116 tumor cells were treated with analogues at 100 nM (light grey), 250 nM (grey), or 500 nM (black) for 24 h and then cellular RNA was isolated and purified for qPCR. […] Genes evaluated included those involved in splicing regulation (SF3A1, SF3A3, SF3B1, SF3B2), apoptosis (MCL-1L), and protein folding (DNAJB1), relative to the unspliced control GAPDH. […]
For these studies, we evaluated the expression of genes involved in splicing regulation (SF3A1, SF3A3, SF3B1, SF3B2), apoptosis (MCL-1L), protein folding (DNAJB1), and cell cycle regulation (AURKA, PLK-1) relative to the unspliced control GAPDH. […]

[6] = test system: AURKA; experiment: qPCR splicing analysis, AURKA exon skipping / expression; assay type: cell-based, human; details: HCT116, 24 h, 100, 250, 500 nM
Protocol: as §1
Next, we turned our efforts to explore the ability of these analogues to modulate splicing. […] We treated cells for 4 h so that we could evaluate early changes in splicing activity, and then cellular RNA was isolated and purified for analyses by qPCR (FIG. 14). […]
as §3, with “Primers were designed to evaluate intron retention or exon skipping, direct responses to splice modulator treatment.” left out, “treatment. […]” for “treatment.”
Cells were treated with 1 or 1a-1j in media (McCoy's 5a (Life Technologies) supplemented with 10% FBS, 2 mM L-glutamine, and 100 U mL^−1 of penicillin and 100 μg mL^−1 of streptomycin 0.5% DMSO) for 4 h or 24 h. […] The amount of unspliced RNA for different genes was determined using Power SYBR Green PCR master mix (Applied Biosystems) by qPCR using specific primers for each gene. qPCR using 2.5 μM of each primer was performed on 5 ng of the obtained cDNA. qPCR conditions were as follows: 95° C. for 10 min for one cycle, then 95° C. for 10 min for one cycle, then 95° C. for 30 s, 55° C. for 60 s, 72° C. for 60 s, for 40 cycles using the MXPro. […]

| Structure (SMILES) | MTD [1] [mg/kg] | SF2 RNA expression [2] | DNAJB1 intron retention [3] | stability (words) [4] | stability (words) ([4]; listed as 17S-FD-895) | SF3A3 intron retention [5] | down regulating the expression of SF2 RNA ([2]; HCT116, 4 h, 20 times GI50, qPCR) | AURKA expression [6] | DNAJB1 intron 2 retention (level of intron retention) ([3]; HCT116, 4 h, 20 times GI50, qPCR relative to GAPDH) |
| --- | --- | --- | --- | --- | --- | --- | --- | --- | --- |
| CC[C@H](OC)[C@@H](C)[C@H]1O[C@@H]1[C@@H](O)[C@H](C)/C=C/C=C(\C)[C@H]1OC(=O)C[C@H](O)CC[C@@](C)(O)[C@@H](OC(C)=O)/C=C/[C@@H]1C [Analog 1d, 17S-FD-895] | 4 | decreased effect at reducing | decreased level of intron retention | increased stability | metabolically-improved | – | – | – | – |
| CC[C@H](OC)[C@@H](C)[C@H]1O[C@@H]1[C@@H](O)[C@H](C)/C=C/C=C(\C)[C@H]1OC(=O)C[C@@H](O)CC[C@@](C)(O)[C@@H](OC(C)=O)/C=C/[C@@H]1C [Analog 1g, 3S,17S-FD-895] | – | reduced ability to inhibit SF2 RNA expression | loss in intron retention | – | – | concentration dependent increase intron retention | highest efficacy | altered the expression of AURKA comparable to 1 | highest level of intron retention |
| CC[C@@H](OC)[C@H](C)[C@H]1O[C@@H]1[C@@H](O)[C@H](C)/C=C/C=C(\C)[C@H]1OC(=O)C[C@H](O)CC[C@@](C)(O)[C@@H](OC(C)=O)/C=C/[C@@H]1C [Analog 1j, 17S,20S,21R-FD-895] | – | – | – | – | – | – | – | reducing the expression of AURKA at 500 nM | – |
